Test results from publication PMC9095466 (Nature, 2022).
Where “and” joins values, the source holds several entries; their conditions need not be identical. Equal values may be shown once. Read-outs that look alike come from different tables or passages of the source. *1 amine or outer side, *2 acyl side, *3 side chain or, on linkers, in order; H or OH if unused. Where a SMILES comes first, the peptide text is derived from it. Bridges are numbered along the chain shown (N, C = ends). [ ]: non-standard residue; d: D form. The star is where a group is joined. X1 = CC[C@H](C)[C@@H](N[*:1])[C@@H](O)CC(=O)O[C@H](C(=O)[C@H](C)C(=O)[*:2])C(C)C; NMeY = CN[C@@H](Cc1ccc(O)cc1)C(=O)O; dNMeL = CN[C@H](CC(C)C)C(=O)O; Pyruvoyl = CC(=O)C(=O)*

What was measured:
[1] = target: human TMPRSS2 (Homo sapiens, UniProt O15393); experiment: cell-based; conditions: for TMPRSS2 activity (%): Figure 1B, single experiments N1-N3
[2] = system: SARS-CoV-2 lineage B strain (VIDO); experiment: microbe, parasite or virus in culture; assay type: cell-based; conditions: for Nucleocapsid / dsRNA: Figure 2a, two replicates; for Nucleocapsid: DMSO control about 91-94; for dsRNA: DMSO control about 93-95; for inhibition at 0.1 µM: read-out: inhibition of SARS-CoV-2 infection
[3] = system: Vero E6 cells; experiment: Cytotoxicity assay (Cell Titer-Glo 2.0) in Vero E6 cells; assay type: cell-based; conditions: 24 h, single experiments N1-N4
Description: (§1) Calu-3 and Vero E6 cells (2500 or 10,000 cells for samples, 80–20,000 cells for standard curve) were seeded in 96-well plates. Following a 24-h incubation at 37 °C, 5% CO2, cells were washed with D-PBS and compounds added (10 µM) for an additional 24-h incubation. Cellular viability was assessed using Cell Titer-Glo 2.0 Cell Viability Assay (Promega) according to the manufacturer’s instructions. The number of viable cells was extrapolated using the standard curve. Cellular viability in Vero E6 cells was expressed relative (%) to vehicle-treated cells. Data are from four independent experiments (mean ± s.d.).

[4] = as above; assay type: cell-based; conditions: African green monkey, % Viability of Vero E6 cells
Description: as §1

[5] = system: SARS-CoV-2 (VIDO); assay type: cell-based; parameters: plaque assay titre, Figure 2c: unit not given beside the values; conditions: for reduction of viral titre (plaque assay): supernatant of infected Calu-3 cells, vs DMSO-treated infected control; for plaque assay titre, Figure 2c: replicate columns
[6] = system: SARS-CoV-2 (USA-WA1/2020, lineage A); assay type: in vivo, K18-hACE2 mice; conditions: Figure S8 C, tissue plaque assay, individual animals
[7] = system: SARS-CoV-2 (USA-WA1/2020, lineage A); experiment: K18-hACE2 mouse model of SARS-CoV-2, IHC of nucleocapsid with digital image analysis; assay type: in vivo, K18-hACE2 mice; conditions: individual mice, 8-day regimen, tissue at death or end-point
Description: To detect viral antigen, sections were labelled with anti-SARS-CoV-2 nucleocapsid protein rabbit IgG monoclonal antibody (GeneTex; GTX635679) at a 1:5,000 dilution and processed using a Leica Bond Max automated IHC stainer. Leica Bond Polymer Refine Detection (Leica; DS9800) with DAB was used as the chromogen. Image acquisition was performed using a Roche Ventana DP200 slide scanner. Digital image analysis was performed using QuPath software[65],[66] v.0.2.3. Tissues were annotated to include all available lung tissue or all brain tissue excluding cerebellum, as cerebellar tissue was not available for all mice. Following annotation, automated detection was performed using automated SLIC superpixel segmentation with a DAB mean detection threshold of 0.18892.

[8] = system: SARS-CoV-2 (USA-WA1/2020, lineage A); parameters: species or system K18-hACE2 mice; conditions: mouse, in vivo
[9] = system: SARS-CoV-2 (VIDO); experiment: microbe, parasite or virus in culture; assay type: cell-based; conditions: Severe acute respiratory syndrome coronavirus 2; colonoids pretreated 3 h with 100 nM, infected 3 days, vs DMSO-treated; read-out: inhibition of SARS-CoV-2 infection in colonoids
[10] = system: SARS-CoV-2 (USA-WA1/2020, lineage A); experiment: K18-hACE2 mouse model of SARS-CoV-2, H&E histopathology of lung and brain; conditions: 8-day regimen
Description: For histological examination, mouse lungs and brains were collected directly after euthanasia and placed in 10% formalin for more than 72 h, after which tissues were embedded in paraffin. Tissue sections (4 μm) were analysed after staining with H&E and scored blinded by an anatomic pathologist. For lung, scores were applied based on the percentage of each tissue type (alveolus, vessels and so on) affected using the following criteria: (0) normal; (1) less than 10% affected; (2) 10–25% affected; (3) 26–50% affected; and (4) more than 50% affected[64]. Assessment of lung pathology in K18-hACE2 mice infected with the SARS-CoV-2 B.1.617.2 (Delta) VOC after single-dose treatment was performed on IHC sections counterstained with haematoxylin. For brains, histological scoring was assessed for perivascular inflammation using the most severely affected vessel and the following criteria: (0) no perivascular inflammation; (1) incomplete cuff one cell layer thick; (2) complete cuff one cell layer thick; (3) complete cuff two to three cells thick; and (4) complete cuff four or more cells thick. Necrotic cells in the neuroparenchyma were assessed per 0.237 mm^2 field using the most severely affected area and the following criteria: (0) no necrotic cells; (1) rare individual necrotic cells; (2) fewer than 10 necrotic cells; (3) 11 to 25 necrotic cells; (4) 26 to 50 necrotic cells; and (5) greater than 50 cells.

[11] = system: SARS-CoV-2; parameters: method as in PMID 33495306; conditions: pneumocyte-like cells; read-out: EC50 against SARS-CoV-2 infection; cited from earlier work
[12] = Severe acute respiratory syndrome coronavirus 2, Calu-3
[13] = individual mice, tissue at death or end-point

human TMPRSS2, sequence (O15393 whole entry): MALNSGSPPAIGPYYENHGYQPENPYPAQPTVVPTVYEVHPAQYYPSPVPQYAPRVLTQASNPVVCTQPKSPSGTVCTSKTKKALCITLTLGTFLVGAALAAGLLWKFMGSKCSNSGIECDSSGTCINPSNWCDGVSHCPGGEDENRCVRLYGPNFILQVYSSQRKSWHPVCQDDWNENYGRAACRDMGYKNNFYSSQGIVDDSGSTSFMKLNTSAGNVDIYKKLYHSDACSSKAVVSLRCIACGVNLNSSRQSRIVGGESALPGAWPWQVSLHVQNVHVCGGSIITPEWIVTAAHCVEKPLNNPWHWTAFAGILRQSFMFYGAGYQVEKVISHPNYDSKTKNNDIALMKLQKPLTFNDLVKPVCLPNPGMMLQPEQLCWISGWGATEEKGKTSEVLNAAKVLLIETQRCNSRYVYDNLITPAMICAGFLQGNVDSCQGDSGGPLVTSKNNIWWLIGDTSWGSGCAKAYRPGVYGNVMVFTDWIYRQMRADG

Compound: CC(NC(=O)C(CCC(N)=O)NC(=O)C(N)CCCNC(=N)N)C(=O)NC(CCCNC(=N)N)C(=O)c1nc2ccccc2s1 (stereo not shown) [Compound N-0100]
- inhibition of TMPRSS2 activity (reduction of substrate proteolysis) ([1]; 10 nM compound, 24 h, vs untreated/vehicle TMPRSS2-expressing Vero E6 cells): did not inhibit
- TMPRSS2 activity (%) [1]: 113.572% and 108.611% and 101.926%
- Nucleocapsid [2]: 59.9825 and 100
- dsRNA [2]: 53.1735 and 98.3497
- inhibition at 0.1 µM [2, 12]: < 25%
- % Viability of Vero E6 cells ([3]; 10 μM compound, relative to vehicle (DMSO 0.01%), 10 µM): 122.116% and 96.727% and 87.5998% and 134.594%

Compound: N=C(N)NCCCCC(=O)NC(CCC(N)=O)C(=O)NC(CC1CCCCC1)C(=O)NC(CCCNC(=N)N)C(=O)c1nc2ccccc2s1 (stereo not shown) [Compound N-0678]
- TMPRSS2 activity (%) [1]: 91.6478% and 104.935% and 97.8749%
- inhibition at 0.01 µM ([1]; Vero C1008, 10 nM compound, 24 h, vs untreated/vehicle TMPRSS2-expressing Vero E6 cells, read-out: inhibition of TMPRSS2 activity (reduction of substrate proteolysis)): 5%
- Nucleocapsid [2]: 70.7269 and 93.9071
- dsRNA [2]: 64.9837 and 89.8579
- inhibition at 0.1 µM [2, 12]: < 23%
- viability at 24 h, 10 µM [4]: 113%

Compound: CS(=O)(=O)NC(CCC(N)=O)C(=O)NC(Cc1ccccc1)C(=O)NC(CCCNC(=N)N)C(O)c1nc2ccccc2s1 (stereo not shown) [N-0385(OH), Ms-QFR-Kbt(OH)]
- reduction in TMPRSS2 activity ([1]; cells treated with up to 10 μM): no significant reduction
- reduction of viral titre (plaque assay) ([5]; 40 nM): did not induce reduction
- plaque assay titre, Figure 2c ([5]; 40 nM): 240000 and 1067000 and 627000 and 715000 and 1050000 and 440000 and 310000 (2×) and 190000 and 70000 and 400000 and 350000 and 264000 and 242000
- reduction of viral titre (plaque assay) ([5]; 200 nM): did not induce reduction
- plaque assay titre, Figure 2c ([5]; 200 nM): 200000 and 150000 (2×) and 30000 and 500000 (4×) and 780000 and 594000 and 286000 and 190000 and 950000
- PFU/g ([6]; Females): 15000000 PFU/g and 1441176 PFU/g and 8676471 PFU/g and 0 PFU/g and 2014706 PFU/g
- PFU/mL ([6]; Females): 3000000 PFU/mL and 288235 PFU/mL and 1735294 PFU/mL and 0 PFU/mL and 402941 PFU/mL
- PFU/g ([6]; Males): 0 PFU/g and 9852941 PFU/g and 720588 PFU/g
- PFU/mL ([6]; Males): 0 PFU/mL and 1970588 PFU/mL and 144118 PFU/mL
- inhibition of SARS-CoV-2 infection in dose-response ([2]; Calu-3 cells, concentrations up to 1 μM): substantial inhibition was not observed
- Nucleocapsid [2]: 67.4057 and 91.7182
- dsRNA [2]: 60.8663 and 93.4144
- EC50 ([2]; Severe acute respiratory syndrome coronavirus 2, Calu-3, read-out: SARS-CoV-2 VIDO Nucleocapsid EC50 ± SE): > 1000 nM
- inhibition at 0.1 µM [2, 12]: < 23%
- Figure 2b dose-response, Mean ([2]; log [C] (nM) 0.20412): 76.2535
- Figure 2b dose-response, Mean ([2]; log [C] (nM) 0.90309): 92.6293
- Figure 2b dose-response, Mean ([2]; log [C] (nM) 1.60206): 68.5403
- Figure 2b dose-response, Mean ([2]; log [C] (nM) 2.30103): 90.4217
- Figure 2b dose-response, Mean ([2]; log [C] (nM) 3): 72.2184
- Figure 2b dose-response, Mean ([2]; log [C] (nM) -0.49485): 87.0011
- Figure 2b dose-response, Mean ([2]; log [C] (nM) -1.19382): 84.82
- Brain No. Positive (IHC detections) [7]: 205622 and 308647 and 423604 and 84 and 143563 and 207074 and 97743 and 210 and 4043 and 310256
- Brain No. Positive per mm^2 [7]: 4555.9 per mm^2 and 7896.3 per mm^2 and 7494 per mm^2 and 2.578 per mm^2 and 3909.6 per mm^2 and 5209.1 per mm^2 and 2144.6 per mm^2 and 10.67 per mm^2 and 137.97 per mm^2 and 6010.9 per mm^2
- Brain Positive % [7]: 45.15% and 78.61% and 74.5% and 0.0256% and 38.77% and 51.89% and 21.4% and 0.1052% and 1.361% and 59.5%
- Lung No. Positive (IHC detections) [7]: 39230 and 61582 and 572 and 191 and 315 and 37366 and 98 and 384 and 178
- Lung No. Positive per mm^2 [7]: 2703.8 per mm^2 and 1622.2 per mm^2 and 26.11 per mm^2 and 8.074 per mm^2 and 15.79 per mm^2 and 10.94 per mm^2 and 1638.9 per mm^2 and 3.505 per mm^2 and 17.97 per mm^2 and 6.38 per mm^2
- Lung Positive % [7]: 26.59% and 15.97% and 0.2589% and 0.0798% and 0.1558% and 0.1086% and 16.31% and 0.0348% and 0.1784% and 0.063%
- average weight loss at 6 dpi [8]: 12%
- survival to the end-point (14 dpi) [8]: 10%
- weight loss at the study end-point [8]: 15%
- inhibition at 0.1 µM [9]: < 20%
- Brain lesions (H&E) ([10]; N-0385: surviving mice, day 14): reduced
- Perivascular infiltrates in CNS score ([10]; individual mice, most severely affected vessel): 0 and 2 and 1
- Alveolar cells score [10, 13]: 0 and 1 ((1) <10% affected) and 2 ((2) 10–25% affected)
- Alveolar edema score [10, 13]: 0 and 1 ((1) <10% affected) and 2 ((2) 10–25% affected)
- Alveolar fibrin score [10, 13]: 0 and 1 ((1) <10% affected) and 2 ((2) 10–25% affected)
- Fibrosis score [10, 13]: 0
- Interstitial infiltrates in lung score [10, 13]: 0 and 1 ((1) <10% affected) and 3 ((3) 26–50% affected)
- Lymphoid hyperplasia score [10, 13]: 0
- Perivascular infiltrate in lung score [10, 13]: 1 ((1) <10% affected) and 3 ((3) 26–50% affected) and 0
- Type II pneumocyte hyperplasia score [10, 13]: 0 and 1 ((1) <10% affected) and 3 ((3) 26–50% affected)

Compound: CC[C@H](C)[C@H]1NC(=O)[C@@H](NC(=O)[C@@H](CC(C)C)N(C)C(=O)[C@@H]2CCCN2C(=O)C(C)=O)[C@@H](C)OC(=O)[C@H](Cc2ccc(OC)cc2)N(C)C(=O)[C@@H]2CCCN2C(=O)[C@H](CC(C)C)NC(=O)[C@@H](C)C(=O)[C@H](C(C)C)OC(=O)C[C@@H]1O [Plitidepsin] (Pyruvoyl-P[dNMeL]T[X1]LP[NMeY](Me); ester 3-C)
- EC50 [11]: 1.62 nM

Compound: Triton X-100 [reference compound]
- % Viability of Vero E6 cells ([3]; Triton X-100 0.01% toxicity control): 0.08115% and 6.372% and 5.985% and 2.918%
